The values that follow come from patent publication US4330552A, “Antiinflammatory 4,5-diaryl-2-arylthioimidazoles” (E. I. Du Pont de Nemours and Company, priority 1980, dated 1982).

In the experiment the test system is adjuvant-induced arthritis in rats. Put plainly: Established Adjuvant-Induced Arthritis in Rats (paw volume reduction). The format is in vivo, Lewis (Wistar) male rats. The settings on record: oral gavage once daily for 7 days (days 14-20), paw volume on day 21; for ED50: Rattus norvegicus, estimated from dose-response regression lines by inspection, read-out: Adjuvant Arthritis ED50 (50% decrease from control paw volume).

For `COc1ccc(-c2nc(S(=O)(=O)c3ccccc3)[nH]c2-c2ccc(OC)cc2)cc1` [Example 6], the ED50 – broadly, the dose that gives a 50% effect, or the effect in half of the subjects – was 58 mg/kg.
As for `COc1ccc(-c2nc(S(=O)(=O)c3ccc(OC)cc3)[nH]c2-c2ccc(OC)cc2)cc1` [Example 8], where the note is “25 mg/kg”, the “percent paw volume reduction at the dose indicated” value (from here on “percent paw volume reduction”) was 16%.
Regarding `COc1ccc(-c2nc(S(=O)(=O)c3ccc(Cl)cc3)[nH]c2-c2ccc(OC)cc2)cc1` [Example 5, 4,5-Bis(4-methoxyphenyl)-2-(4-chlorophenylsulfonyl)-1H-imidazole], where the note is “25 mg/kg”, the “percent paw volume reduction” value turned out to be 31%.
As for `COc1ccc(-c2nc(Sc3ccccc3)[nH]c2-c2ccc(OC)cc2)cc1` [Example 2], the “percent paw volume reduction” value was 32% (25 mg/kg), 28% (50 mg/kg) and 32% (100 mg/kg).
Consider `COc1ccc(-c2nc(Sc3ccc(Cl)cc3)[nH]c2-c2ccc(OC)cc2)cc1` [Example 1, 4,5-Bis(4-methoxyphenyl)-2-(4-chlorophenylthio)-1H-imidazole], for which the ED50 is 10 mg/kg.
As to `COc1ccc(-c2nc(S(=O)(=O)c3ccc(F)cc3)[nH]c2-c2ccc(OC)cc2)cc1` [Example 7], the “percent paw volume reduction” value (27 mg/kg) stood at 0%.
As for `COc1ccc(Sc2nc(-c3ccc(OC)cc3)c(-c3ccc(OC)cc3)[nH]2)cc1` [Example 4], the ED50 is 13 mg/kg.
Turning to `COc1ccc(-c2nc(Sc3ccc(F)cc3)[nH]c2-c2ccc(OC)cc2)cc1` [Example 3], the “percent paw volume reduction” value (25 mg/kg) was 35%.
